Test [1] has as its target T1, DGKζ (Homo sapiens, UniProt Q13574).
T1 construct: His (N); TEV cleavage site (N); made in house; host or cells: Sf9 insect cells (baculovirus, Bac-to-Bac)
Briefly: Biochemical DGK IC50 assay, DGKζ ADP-Glo assay. Conditions: full length DGKζ 0.5 nM, ATP 140 μM, DAG 80 μM. As to the method:
(§1) Enzymatic reactions of DGKζ, DGKα and DGKδ were performed using ADP-Glo assay with lipid micelle substrate. […] Full length DGKα (D21-10BG, SignalChem) and full length DGKδ (D23-10G, SignalChem) were purchased. Lipid micelle was prepared by dissolving DAG (Sigma, 317505-10MG) and PS (Sigma, P7769-100MG) with chloroform which was furtherly removed by rotary evaporation. The resulted product was resuspended in buffer containing 25 mM HEPES pH 7.0, 0.5 mM EDTA and 160 mM Octyl β-D glucopyranoside by vigorous mixing and ultrasonic (IID, Scientz)
(§2) The ranges of compounds final concentration were 1.55-10000 nM or 23.3-150000 nM. 3 μL 2× enzyme solution was added to wells.
Human His-TEV-DGK-zeta-pFastBac1 and human baculovirus samples was generated using the Bac-to-Bac baculovirus expression system (Invitrogen) according to the manufacturer's protocol. The DNA used for expression of DGK-zeta, have SEQ ID Nos: 1. Baculovirus amplification was achieved using infected SF9 cells at 1:2000 virus/cells ratios, and grown for 96 hours at 27° C. post-transfected.
The expression scaled up for each protein was carried out in the […] from CORNING. 4 L of 3×10^6 cells/mL Sf9 cells (Expression System, Invitrogen) grown in SF900™ II SFM insect medium (Expression System) was infected with virus stock at 1:200 virus/cells ratio, and grown for 48 hours at 27° C. post-transfection. The infected cell culture was harvested by centrifugation at 6000 rpm for 15 min 4° C. in a SORVALL LYNX6000 centrifuge. The cell pellets were stored at −80° C.
Full length human DGK produced as described above, was purified from Sf9 baculovirus-infected insect cell paste. The cells were lysed using sonication method, and the lysates were clarified by centrifugation.

The target in test [2] is T2, DGKα (Homo sapiens, UniProt P23743).
T2 construct: Full length DGKα (D21-10BG, SignalChem); purchased SignalChem D21-10BG
In words: Biochemical DGK IC50 assay, DGKα ADP-Glo assay. Conditions: full length DGKα 7.5 nM, ATP 140 μM, DAG 80 μM. As to the method: as §1, §2

pIC50: −log10 of the molar value.

The text below walks through data of patent publication US20240300951A1, “Pyrazolopyridinone Compounds” (BeiGene Ltd., priority 2021, published 2024).

T2 sequence (P23743 whole entry): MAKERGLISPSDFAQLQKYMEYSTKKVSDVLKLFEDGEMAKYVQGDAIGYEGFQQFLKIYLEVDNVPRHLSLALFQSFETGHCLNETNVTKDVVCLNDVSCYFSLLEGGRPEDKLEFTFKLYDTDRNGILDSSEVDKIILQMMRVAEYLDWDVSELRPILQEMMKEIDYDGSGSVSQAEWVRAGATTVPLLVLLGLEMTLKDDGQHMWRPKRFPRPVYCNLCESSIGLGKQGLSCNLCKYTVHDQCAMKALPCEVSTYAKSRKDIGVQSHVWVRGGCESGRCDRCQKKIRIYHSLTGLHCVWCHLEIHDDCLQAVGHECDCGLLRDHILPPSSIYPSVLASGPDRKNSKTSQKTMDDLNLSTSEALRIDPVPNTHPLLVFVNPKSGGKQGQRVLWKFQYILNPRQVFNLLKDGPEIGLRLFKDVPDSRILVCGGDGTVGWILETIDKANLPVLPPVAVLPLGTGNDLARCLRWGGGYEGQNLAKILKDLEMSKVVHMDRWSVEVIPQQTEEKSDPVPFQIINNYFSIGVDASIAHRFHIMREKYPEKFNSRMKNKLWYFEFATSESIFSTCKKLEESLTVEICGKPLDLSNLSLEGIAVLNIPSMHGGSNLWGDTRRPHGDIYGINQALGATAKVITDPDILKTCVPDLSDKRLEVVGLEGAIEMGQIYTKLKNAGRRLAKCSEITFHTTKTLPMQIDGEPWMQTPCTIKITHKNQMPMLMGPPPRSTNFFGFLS
T1 sequence (Q13574 1-929 isoform Q13574-4): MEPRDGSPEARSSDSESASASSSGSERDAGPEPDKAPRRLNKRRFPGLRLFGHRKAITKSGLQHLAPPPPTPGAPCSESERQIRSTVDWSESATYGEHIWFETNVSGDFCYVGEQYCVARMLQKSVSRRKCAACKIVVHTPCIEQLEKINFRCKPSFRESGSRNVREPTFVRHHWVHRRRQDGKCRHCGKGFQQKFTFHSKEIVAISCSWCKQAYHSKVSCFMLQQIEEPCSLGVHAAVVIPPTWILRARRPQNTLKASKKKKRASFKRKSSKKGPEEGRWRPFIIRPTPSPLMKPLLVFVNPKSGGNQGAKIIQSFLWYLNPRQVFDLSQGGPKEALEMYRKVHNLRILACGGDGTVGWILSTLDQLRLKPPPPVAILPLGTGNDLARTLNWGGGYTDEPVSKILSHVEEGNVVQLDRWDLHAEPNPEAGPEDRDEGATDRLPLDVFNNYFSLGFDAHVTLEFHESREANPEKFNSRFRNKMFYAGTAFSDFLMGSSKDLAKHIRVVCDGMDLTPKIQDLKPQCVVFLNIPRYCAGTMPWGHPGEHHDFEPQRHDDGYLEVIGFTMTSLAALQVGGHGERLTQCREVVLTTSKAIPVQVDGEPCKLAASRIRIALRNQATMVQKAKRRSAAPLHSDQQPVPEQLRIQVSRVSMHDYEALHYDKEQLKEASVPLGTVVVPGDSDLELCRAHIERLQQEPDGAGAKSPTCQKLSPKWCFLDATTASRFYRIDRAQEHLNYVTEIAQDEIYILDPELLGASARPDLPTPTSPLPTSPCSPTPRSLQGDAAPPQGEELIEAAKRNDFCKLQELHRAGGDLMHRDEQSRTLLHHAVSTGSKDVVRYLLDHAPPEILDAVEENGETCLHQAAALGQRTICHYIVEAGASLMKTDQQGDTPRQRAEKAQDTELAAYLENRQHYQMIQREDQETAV

In turn, `COc1cc(F)ccc1C(C)N1C[C@H](C)N(c2cc(=O)n(C)c3cn(CC#N)nc23)C[C@H]1C` (stereo partly drawn) [Compound A248, 2-(7-((2S,5R)-4-(1-(2-omethoxy-4-fluorophenyl)ethyl)-2,5-dimethylpiperazin-1-yl)-4-methyl-5-oxo-4,5-dihydro-2H-pyrazolo[4,3-b]pyridin-2-yl)acetonitrile] showed a pIC50 in test [1] of 6.24.

Turning to `CC[C@@H]1CN(c2cc(=O)n(C)c3cn(CC#N)nc23)[C@@H](C)CN1C(C)c1ccc(F)cc1C(F)(F)F` (single isomer, unassigned) [Compound A218a], the pIC50 in test [2] was below 3.82; in test [1] it was 6.78.

As to `Cc1cnc2ccc([C@H](C)N3C[C@H](C)N(c4cc(=O)n(C)c5cn(CC#N)nc45)C[C@H]3C)cc2n1` (single isomer, unassigned) [Compound A269d], the pIC50 in test [2] is 4.29; in test [1], 7.68.

For `CC[C@H]1CN(C(C)c2nc(Cl)cn2CC)[C@H](CC)CN1c1cc(=O)n(C)c2cn(CC#N)nc12` (single isomer, unassigned) [Compound A191a], the pIC50 was below 5.00 in test [2] and 5.17 in test [1].

In test [1], `Cc1nc2ccc(C(C)N3C[C@H](C)N(c4cc(=O)n(C)c5cn(CC#N)nc45)C[C@H]3C)cn2n1` (mixture of isomers) [Compound A321] had a pIC50 of 5.40.

On to `CC[C@H]1CN(C(C)c2ccc(CN3CCOCC3)cc2)[C@H](CC)CN1c1cc(=O)n(C)c2cn(CC#N)nc12` (single isomer, unassigned) [Compound A383b], for which the pIC50 in test [2] was 5.55; in test [1], 5.34.

In the case of `CC[C@H]1CN(C(C)c2ccc(C3CC3)cc2F)[C@H](CC)CN1c1cc(=O)n(C)c2cn(CC#N)nc12` (single isomer, unassigned) [Compound A72b], the pIC50 is 7.08 in test [2] and 7.82 in test [1].

As to `CC[C@H]1CN(C2CCCc3ccccc32)[C@H](CC)CN1c1cc(=O)n(C)c2cn(CC#N)nc12` (single isomer, unassigned) [Compound A146b], the pIC50 in test [2] is below 5.00; in test [1] it was 5.33.

For the compound `CCC1CN(c2c(C#N)c(=O)n(C)c3cn(CC#N)nc23)CCN1C(C)c1ccc2nccnc2c1` [Compound A169, 2-(cyanomethyl)-7-((2S,5R)-3-ethyl-4-(1-(quinoxalin-6-yl)ethyl)piperazin-1-yl)-4-methyl-5-oxo-4,5-dihydro-2H-pyrazolo[4,3-b]pyridine-6-carbonitrile], the pIC50 in test [2] was below 5.00; in test [1] it was 6.15.

Take `CC[C@H]1CN(C(C)c2nc(Cl)cn2CC)[C@H](CC)CN1c1cc(=O)n(C)c2cn(CC#N)nc12` (single isomer, unassigned) [Compound A191b]: the pIC50 in test [1] is 5.93.

Turning to “7-((2S,5R)-4-(1-(1-(2,2-difluoroethyl)-1H-pyrazol-5-yl)ethyl)-2,5-diethylpiperazin-1-yl)-4-methyl-2,4-dihydro-5H-pyrazolo[4,3-b]pyridin-5-one [Compound A228]”, the pIC50 in test [2] was below 5.00; in test [1], 5.04.

For `CC[C@H]1CN(C(C)c2cccc(C)c2C(F)(F)F)[C@H](CC)CN1c1cc(=O)n(C)c2cn(CC#N)nc12` (single isomer, unassigned) [Compound A110b], the pIC50 in test [2] is 5.04; in test [1], 5.91.

On to `CC[C@@H]1CN(c2c(F)c(=O)[nH]c3cn(CC#N)nc23)[C@@H](C)CN1C(C)c1ccc2nccnc2c1` (single isomer, unassigned) [Compound A194b], for which the pIC50 in test [2] is 5.29; in test [1], 5.92.

Take `CC[C@H]1CN(C(C)c2ncccc2OC)[C@H](CC)CN1c1cc(=O)n(C)c2cn(CC#N)nc12` (single isomer, unassigned) [Compound A92b]: in test [1], the pIC50 is 5.55.

In the case of `CC[C@@H]1CN(c2c(Cl)c(=O)n(C)c3cn(CC#N)nc23)CCN1C(C)c1ccc2nccnc2c1` (single isomer, unassigned) [Compound A162a], the pIC50 in test [2] is below 5.00; in test [1], 5.35.

Turning to `CC[C@H]1CN(C(C)c2ncccc2OC)[C@H](CC)CN1c1cc(=O)n(C)c2cn(CC#N)nc12` (single isomer, unassigned) [Compound A92a], the pIC50 in test [2] and in test [1] was below 5.00 each time.

In the case of `CC[C@H]1CN(C2CCOc3ccccc32)[C@H](CC)CN1c1cc(=O)n(C)c2cn(CC#N)nc12` (single isomer, unassigned) [Compound A150b], the negative-log IC50 (pIC50) is 7.08 in test [2] and 6.27 in test [1].

Regarding `CC[C@H]1CN(C(C)c2ccc3nccnc3c2)[C@H](CC)CN1c1cc(=O)n(C(C)C)c2cn(CC#N)nc12` (single isomer, unassigned) [Compound A190a], the pIC50 in test [2] is below 5.00; in test [1], 6.76.

For the compound `CC[C@H]1CN(C(C)c2ccc(C3CC3)cc2F)[C@H](CC)CN1c1cc(=O)n(C)c2cn(CC#N)nc12` (single isomer, unassigned) [Compound A72a], the pIC50 is 5.92 in test [2] and 6.07 in test [1].

With `CC[C@H]1CN(C2CCCc3ccccc32)[C@H](CC)CN1c1cc(=O)n(C)c2cn(CC#N)nc12` (single isomer, unassigned) [Compound A146a], the values for the pIC50 in test [2] and in test [1] were 6.36 and 6.55, respectively.

In test [1], `CC[C@H]1CN(C(C)c2ccc3nccnc3c2)[C@H](CC)CN1c1cc(=O)n(C(C)C)c2cn(CC#N)nc12` (single isomer, unassigned) [Compound A190b] had a pIC50 below 5.00.

Regarding `CC[C@H]1CN(C2CCOc3ccccc32)[C@H](CC)CN1c1cc(=O)n(C)c2cn(CC#N)nc12` (single isomer, unassigned) [Compound A150a], the pIC50 in test [2] is 5.23; in test [1] it was 5.56.

On to `CC(c1ccc2c(c1)OCC(C)(C)O2)N1C[C@H](C)N(c2cc(=O)n(C)c3cn(CC#N)nc23)C[C@H]1C` (single isomer, unassigned) [Compound A46c], for which the values for the pIC50 in test [2] and in test [1] were 5.48 and 6.87, respectively.

Take `Cc1c2c(nn1CC#N)c(N1C[C@@H](C)N(C(C)c3ccc(F)cc3C(F)(F)F)C[C@@H]1C)nc(=O)n2C` (single isomer, unassigned) [Compound A267b]: the pIC50 was below 3.82 in test [2] and 7.15 in test [1].

With `COCc1cc(F)ccc1C(C)N1C[C@H](C)N(c2cc(=O)n(C)c3cn(CC#N)nc23)C[C@H]1C` (single isomer, unassigned) [Compound A29a], the results for the pIC50 in test [2] and in test [1] were below 5.00 and 5.65, respectively.

In the case of `CC[C@@H]1CN(c2cc(=O)[nH]c3cn(CC#N)nc23)[C@@H](C)CN1C(C)c1ccc2nccnc2c1` (single isomer, unassigned) [Compound A177b], the pIC50 is below 5.00 in test [2] and 5.44 in test [1].

For the compound `CC[C@H]1CN(C(C)c2ccc3nc(OC)cnc3c2)[C@H](CC)CN1c1cc(=O)n(C)c2cn(CC#N)nc12` (single isomer, unassigned) [Compound A281b], the pIC50 in test [2] was 4.95; in test [1], 5.95.

Turning to `CC(c1ccc2c(c1)OC(C)(C)CO2)N1C[C@H](C)N(c2cc(=O)n(C)c3cn(CC#N)nc23)C[C@H]1C` (single isomer, unassigned) [Compound A46d], the pIC50 in test [2] is 4.94; in test [1], 8.05.

With `CC[C@H]1CN(C(C)c2cccc(C)c2C(F)(F)F)[C@H](CC)CN1c1cc(=O)n(C)c2cn(CC#N)nc12` (single isomer, unassigned) [Compound A110a], the pIC50 is 5.94 in test [2] and 6.82 in test [1].

Take `CC#CCn1cc2c(n1)c(N1C[C@@H](CC)N(C(C)c3ccc(F)cc3C(F)(F)F)C[C@@H]1CC)cc(=O)n2C` (single isomer, unassigned) [Compound A238a]: the results for the pIC50 in test [2] and in test [1] were below 5.00 and 5.62, respectively.

On to `CC(c1ccc2c(c1)OCC(C)(C)O2)N1C[C@H](C)N(c2cc(=O)n(C)c3cn(CC#N)nc23)C[C@H]1C` (single isomer, unassigned) [Compound A46e], for which the pIC50 in test [2] was 4.59; in test [1] it was 5.21.

As to `CC[C@H]1CN(C(C)c2ccc(F)cc2C(F)F)[C@H](CC)CN1c1cc(=O)n(C)c2cn(CC#N)nc12` (single isomer, unassigned) [Compound A172a], the values for the pIC50 in test [2] and in test [1] were below 5.00 and 5.36, respectively.

Consider `CC[C@H]1CN(C(C)c2ccc(C(F)F)nc2)[C@H](CC)CN1c1cc(=O)n(C)c2cn(CC#N)nc12` (single isomer, unassigned) [Compound A351b], for which the results for the pIC50 in test [2] and in test [1] were 5.92 and 5.49, respectively.
